Assay results from ChEMBL document CHEMBL5226333, “Targeting Autophagy-Related Epigenetic Regulators for Cancer Drug Discovery” (J Med Chem, 2021).

Experiments:
[1] = target: Histone-lysine N-methyltransferase EZH2 (Homo sapiens, UniProt Q15910); test: Inhibition of EZH2 (unknown origin) in PRC2 complex using H3 (1 to 24 residues) and 3H-SAM as substrate incubated for 1 hrs by Scintillation proximity assay
[2] = Cmax in Swiss albino mouse plasma at 50 mg/kg,po and measured after 24 hrs; type: ADME, organism-based; parameters: time 24 hrs, dose 50 mg/kg, route po; details: in vivo
[3] = Inhibition of GST-tagged […] human GLP (610 to 917 residues) methylation activity expressed in Escherichia coli BL21 assessed as reduction in H3K9me3 level using H3(1 to 20 residues)-cys-biotin and SAM as substrate incubated for 60 mins by Dissociation enhanced lanthanide fluoro-immuno assay

Histone-lysine N-methyltransferase EZH2, sequence (Q15910 whole entry, the tested form may be a part): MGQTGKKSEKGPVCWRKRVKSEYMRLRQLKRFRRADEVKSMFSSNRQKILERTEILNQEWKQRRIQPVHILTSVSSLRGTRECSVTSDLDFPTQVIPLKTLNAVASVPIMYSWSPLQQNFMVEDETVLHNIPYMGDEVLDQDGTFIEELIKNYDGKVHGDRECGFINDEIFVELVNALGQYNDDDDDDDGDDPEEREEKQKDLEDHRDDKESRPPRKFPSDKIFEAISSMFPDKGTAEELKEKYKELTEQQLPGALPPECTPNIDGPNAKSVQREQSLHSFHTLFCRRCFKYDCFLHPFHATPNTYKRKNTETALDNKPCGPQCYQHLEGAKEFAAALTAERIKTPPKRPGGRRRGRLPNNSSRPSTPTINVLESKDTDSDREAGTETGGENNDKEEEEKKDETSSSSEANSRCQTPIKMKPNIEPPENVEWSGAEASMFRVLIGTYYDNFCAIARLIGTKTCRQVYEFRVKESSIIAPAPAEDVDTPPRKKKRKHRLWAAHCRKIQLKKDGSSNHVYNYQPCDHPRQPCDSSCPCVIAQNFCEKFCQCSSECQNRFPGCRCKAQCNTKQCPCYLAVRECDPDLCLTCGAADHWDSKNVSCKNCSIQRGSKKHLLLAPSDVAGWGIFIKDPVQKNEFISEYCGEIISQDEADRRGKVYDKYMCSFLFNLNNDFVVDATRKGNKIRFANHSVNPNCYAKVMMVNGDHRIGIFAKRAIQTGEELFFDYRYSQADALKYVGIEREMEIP

IC50 [1] [µM] | Cmax [2] [µM] | IC50 [3] [µM] | Structure (SMILES)
< 0.01 | 4.7 |  | CCCc1cc(C)[nH]c(=O)c1CNC(=O)c1cc(-c2ccc(N3CCN(C(C)C)CC3)nc2)cc2c1cnn2C(C)C
 |  | 38 | COc1cc2nc(N3CCCN(C)CC3)nc(NC3CCN(Cc4ccccc4)CC3)c2cc1OC
